Test results: publication PMC3818998 (Microbial Biotechnology, 2011)
Like-named read-outs stand apart in the source and are kept apart here.

T1: GalR (Bifidobacterium breve UCC2003, UniProt F9Y1U7 1-351)
T1 sequence: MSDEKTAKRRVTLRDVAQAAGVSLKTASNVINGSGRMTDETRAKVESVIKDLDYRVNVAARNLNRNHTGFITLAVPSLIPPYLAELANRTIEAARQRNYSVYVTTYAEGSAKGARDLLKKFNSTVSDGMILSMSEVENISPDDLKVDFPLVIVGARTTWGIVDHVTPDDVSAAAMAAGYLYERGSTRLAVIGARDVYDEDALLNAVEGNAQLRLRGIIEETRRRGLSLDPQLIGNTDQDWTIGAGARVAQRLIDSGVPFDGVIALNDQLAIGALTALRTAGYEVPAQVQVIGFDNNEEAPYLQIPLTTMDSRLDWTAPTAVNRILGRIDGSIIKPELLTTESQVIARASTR

B1: galCIR1 (dsDNA)
DNA 1: TTAGGTATTGGTACACGGGTGTACCAAAGAAAACA
DNA 2: TGTTTTCTTTGGTACACCCGTGTACCAATACCTAA
B2: galCIR2 (dsDNA)
DNA 1: TGACAAATTGGTACACAGGTGTATCATCTTAGGTA
DNA 2: TACCTAAGATGATACACCTGTGTACCAATTTGTCA

Legend:
GalG = GalG (Bifidobacterium breve, UniProt F9Y1U6); assay: HPTLC of hydrolysis products; format: biochemical
GalR = molecular target: T1, GalR; assay: EMSA

Molecule | binding result (GalR) | other results
OC[C@H]1O[C@@H](O[C@@H]2[C@H](O)[C@@H](O)C(O)O[C@@H]2CO)[C@H](O)[C@@H](O)[C@H]1O (stereo partly shown) [galactobiose] | – | HPTLC of hydrolysis products (GalG): The hydrolysis products of galactobiose and lactose following incubation with GalG
OC[C@H]1O[C@@H](O[C@@H]2[C@H](O)[C@@H](O)[C@H](O[C@@H]3[C@H](O)[C@@H](O)C(O)O[C@@H]3CO)O[C@@H]2CO)[C@H](O)[C@@H](O)[C@H]1O (stereo partly shown) [galactotriose] | – | HPTLC of hydrolysis products (GalG; galactotriose generated in situ from potato galactan by GalA or GalAT): Upon addition of GalG to the reaction mix the galactotriose is further hydrolysed
B1 | binds | –
B2 | binds | –
